Earlier results, collected in patent publication US6476002B1 (priority 1997, dated 2002).

Experiments:
[1] = test system: rats with collagen arthritis; settings: reported by Peacock et al. 1992
wound healing = settings: from literature / copending application

SMILES: CO[C@@H]1[C@H](OC(=O)NC(=O)CCl)CC[C@]2(CO2)[C@H]1[C@@]1(C)O[C@@H]1CC=C(C)C [AGM-1470]
- joint swelling in rats with collagen arthritis [1]: reduces joint swelling
- effect on wound healing (wound healing): inhibits wound healing
